In patent publication US20010006667A1, “USE AND COMPOSITION OF AN ANTI-SEXUALLY TRANSMITTED DISEASES FORMULATION” (priority 1994, published 2001):

System: HIV LAV1 BRU retrovirus clone
Assay: Syncytia formation in HT4LacZ cells infected with an HIV viral suspension pre-mixed with test substance
Format: cell-based
Experimental: The formulations were prepared according to the description discussed above, except that the F-Po was prepared with about 2% polycarbophil, no N-9 and about a 1% concentration of Carbomer 934P, rather than 0.5%, and the difference (2%) was made up with additional water.
A viral blank was used as control, and AZT was used for a positive control. Each formulation was set up as an aqueous suspension of a particular concentration. 500 μl. aliquots of viral suspension were separately mixed with 50 ,μl. of each of the test solutions. After 30 minutes, 55 μl. of each of these mixtures were tested directly on HT4LacZ cells in a well also containing DEAE dextran. During the culturing period, the virus supplies the tat gene missing in HT4LacZ cells, leading to LacZ gene transactivation coding for β-galactosidase, indicated by a histochemical coloration. After 72 hours of culturing, infection is stopped by addition of a fixator for ten minutes. After two PBS washes, the colorant is added for ninety minutes. After syncytia (giant multi-nucleated cells, formed by many cells fusing together when infected with HIV) outbreak, the colorant is replaced with water. Observation is performed with an optical microscope, yielding the following results in Table 1: […]

Molecule | Avg. # Syncytia per well (final conc. 10^−5M) | Percent Reduction (of syncytia vs viral reference) (final conc. 10^−5M) | Total # Syncytia (final conc. 10^−5M) | viral infection remaining, % of that exhibited by the HIV viral suspension (FIG. 1) (0.1 μg/ml) | viral infection remaining, % of that exhibited by the HIV viral suspension (FIG. 1) (1 μg/ml) | Avg. # Syncytia per well (final conc. 0.10 μg/ml) | Percent Reduction (of syncytia vs viral reference) (final conc. 0.10 μg/ml) | Total # Syncytia (final conc. 0.10 μg/ml) | Avg. # Syncytia per well (final conc. 1.0 μg/ml) | Percent Reduction (of syncytia vs viral reference) (final conc. 1.0 μg/ml) | Total # Syncytia (final conc. 1.0 μg/ml)
Cc1cn([C@H]2C[C@H](N=[N+]=[N-])[C@@H](CO)O2)c(=O)[nH]c1=O [AZT] | 0 | 100% | 0 |  |  |  |  |  |  |  | 
nonoxynol-9 [N-9] |  |  |  | 72% | 36% | 11.5 | 28% | 46 | 5.75 | 64% | 23
